Assay: xn = mol fraction of the nth substance listed
Details: 101 kPa, Liquid; for mass density: Vibrating tube method

CCn1cc[n+](C)c1.O=S(=O)([O-])C(F)(F)F [1-ethyl-3-methylimidazolium trifluoromethanesulfonate] + C1CCOC1
Details | mass density, 278.15 K [kg/m3] | mass density, 288.15 K [kg/m3] | mass density, 298.15 K [kg/m3] | mass density, 308.15 K [kg/m3] | mass density, 318.15 K [kg/m3] | speed of sound, 278.15 K [m/s] | speed of sound, 288.15 K [m/s] | speed of sound, 298.15 K [m/s] | speed of sound, 308.15 K [m/s] | speed of sound, 318.15 K [m/s]
x1 = 0.051 | 964.39 | 953.89 | 943.29 | 932.59 | 921.76 | 1362.7 | 1316.9 | 1271.7 | 1227 | 1182.8
x1 = 0.1 | 1013.94 | 1003.61 | 993.23 | 982.77 | 972.18 | – | 1318.7 | 1275.5 | 1233.3 | 1191.4
x1 = 0.1503 | 1059.68 | 1049.68 | 1039.61 | 1029.5 | 1019.22 | – | 1325.4 | 1285.5 | 1246.5 | 1207.2
x1 = 0.2001 | 1098.67 | 1088.88 | 1079.04 | 1069.18 | 1059.3 | 1373.3 | 1334.8 | 1297.4 | 1260.7 | 1224.5
x1 = 0.3001 | 1166.19 | 1155.19 | 1145.24 | 1135.87 | 1126.45 | 1387.7 | 1353.8 | 1320.8 | 1288.7 | 1257.1
x1 = 0.3992 | 1217.18 | 1207.94 | 1198.76 | 1189.62 | 1180.52 | 1403.5 | 1372.7 | 1342.8 | 1313.3 | 1284.5
x1 = 0.4995 | 1261.1 | 1252.06 | 1243.08 | 1234.16 | 1225.28 | 1414.7 | 1388 | 1361.4 | 1335.5 | 1309.7
x1 = 0.599 | 1297.75 | 1288.87 | 1280.05 | 1271.3 | 1262.63 | 1432.5 | 1405.8 | 1379.9 | 1354.5 | 1329.9
x1 = 0.7014 | 1330 | 1321.24 | 1312.54 | 1303.92 | 1295.36 | 1446.6 | 1421.4 | 1396.8 | 1372.6 | 1349
x1 = 0.7965 | 1356.21 | 1347.55 | 1338.96 | 1330.44 | 1321.98 | 1459 | 1434.6 | 1410.8 | 1387.6 | 1365.1
x1 = 0.849 | 1369.15 | 1360.54 | 1352 | 1343.53 | 1335.11 | 1465.4 | 1441.4 | 1418.1 | 1395.2 | 1372.9
x1 = 0.899 | 1380.34 | 1371.78 | 1363.27 | 1354.82 | 1346.41 | 1470.5 | 1446.4 | 1423.1 | 1400.3 | 1378.1
x1 = 0.9511 | 1391.34 | 1382.83 | 1374.36 | 1365.93 | 1357.57 | 1476 | 1452.3 | 1429.2 | 1406.8 | 1384.9
